Earlier results in patent publication US20260125514A1, “CROSSLINKED POLYMERS AND THEIR USES” (UNIVERSITÉ CÔTE D'AZUR, priority 2022, published 2026).

Conditions: free, non crosslinked caulerpenyne; Parent-Massin (1996)

SMILES: CC(=O)O/C=C(/C=C/OC(C)=O)[C@H](C/C=C(\C)C#CC=C(C)C)OC(C)=O [caulerpenyne, Caulerpenyne]
- toxicity: toxicity
